Data: patent US8486606B2, “Acrylate derivative, haloester derivative, polymer compound and photoresist composition” (Kuraray Co., Ltd., priority 2008, dated 2013)

Test: Evaluation of solubility at 25° C. in organic solvent
Assay type: physicochemical
Description: A solubility of 2-methacryloyloxyacetoxy-4,5-oxathiatricyclo[4.2.1.0^3,7]nonane-5,5-dioxide obtained in Example 2 in tetrahydrofuran was measured according to the following operation.
1 g of a sample to be used for the evaluation of solubility was prepared. 1 g of an organic solvent described in Table 1 and the foregoing sample were mixed at 25° C., and the mixture was stirred at 25° C. for 10 minutes as it was. An insoluble matter was filtered out from the obtained mixed solution, and the organic solvent was distilled off from the filtrate. Subsequently, the residue was dried under reduced pressure for 5 hours, thereby obtaining the sample in the saturated solution. A mass of the subject sample was measured, and its solubility was calculated according to the following expression. Solubility(% by mass)=100×(Mass of the sample in the saturated solution)/(Mass of the saturated solution)
The experiment and evaluation of solubility were carried out in the same manner as in Example 7, except that in Example 7, the sample and the organic solvent were changed to those shown in Table 1 or Table 2.

[1] = organic solvent: Methyl ethyl ketone
[2] = organic solvent: Tetrahydrofuran

| SMILES | Solubility [1] [% by mass] | Solubility [2] [% by mass] |
| --- | --- | --- |
| C=C(C)C(=O)OCC(=O)OC1C2CC3C1OS(=O)(=O)C3C2 (stereo not drawn) [Example 2, 2-methacryloyloxyacetoxy-4,5-oxathiatricyclo[4.2.1.0^3,7]nonane-5,5-dioxide] | 45.5 | 48.1 |
| C=C(C)C(=O)OCC(=O)OC1C2CC3C(O2)C1OS3(=O)=O (stereo not drawn) [Example 4, 5-methacryloyloxyacetoxy-3,7-dioxa-2-thiatricyclo[4.2.1.0^4,8]nonane-2,2-dioxide] | 30.8 | 31.9 |
| C=C(C)C(=O)OCC(=O)OC1C2CC3C(=O)OC1C3O2 (stereo not drawn) [reference compound] | 4.2 | 7.8 |
